According to patent publication US12060586B2, “Cell data recorders and uses thereof” (The Broad Institute, Inc., priority 2018, dated 2024):

System: Wnt signaling
Assay: Wnt signaling-driven luciferase expression in HEK293T cells
Assay type: cell-based, human
Conditions: HEK293T transfected with (LEF-TCF)7-BE3-P2A-Luc; LiCl 50 mM, 24 hours
From the text: The Wnt signaling pathway (also known as a signaling cascade) plays a crucial role in embryonic development and aberrant Wnt signaling is associated with a variety of diseases in humans (38). A recording of Wnt signaling was sought using CAMERA 2m in human cells. To achieve this goal, the expression of BE3 was placed under a (LEF-TCF)7 promoter (39) that responds to Wnt signaling to initiate downstream gene expression in CAMERA 2 m.3. […] A (LEF-TCF)7-BE3-P2A-Luc construct that expresses a firefly luciferase protein together with BE3 was included so that Wnt could be monitored simultaneously by luminescence and by high-throughput sequencing of the CCR5 recording locus. […] This increase in Wnt signaling was permanently recorded by a 53-fold increase in base editing at the CCR5 locus upon LiCl treatment (FIG. 5E).
To enable CAMERA 2m to record Wnt signaling, a (TCF/LEF)7 promoter was installed upstream BE3 and BE3-P2A-Luc to generate CAMERA 2 m.3 ((TCF/LEF)7-BE3 and ((TCF/LEF)7-BE3-P2A-Luc). TOPFlash ((TCF/LEF)7-Luc) (47) was used as a transient readout of Wnt signaling. A control plasmid that encodes the Renilla luciferase was included to normalize transfection efficiency for luminescence readout. […]
Firefly luciferase and Renilla luciferase activities were measured 24 hours after LiCl treatment. […]

Q: How did the “fold increase in Wnt signaling-driven luciferase expression” value turn out when `[Cl-].[Li+]` [LiCl] was run?
A: Its value is 140 fold.
